These results are taken from patent publication US20240270821A1, “GIP/GLP1/GCG TRI-RECEPTOR AGONISTS AND USES THEREOF” (priority 2023, published 2024).

Holding throughout (type): cell-based
Assay [1] deals with T1, hGIPR (Homo sapiens, UniProt P48546).
T1 sequence (P48546 22-466): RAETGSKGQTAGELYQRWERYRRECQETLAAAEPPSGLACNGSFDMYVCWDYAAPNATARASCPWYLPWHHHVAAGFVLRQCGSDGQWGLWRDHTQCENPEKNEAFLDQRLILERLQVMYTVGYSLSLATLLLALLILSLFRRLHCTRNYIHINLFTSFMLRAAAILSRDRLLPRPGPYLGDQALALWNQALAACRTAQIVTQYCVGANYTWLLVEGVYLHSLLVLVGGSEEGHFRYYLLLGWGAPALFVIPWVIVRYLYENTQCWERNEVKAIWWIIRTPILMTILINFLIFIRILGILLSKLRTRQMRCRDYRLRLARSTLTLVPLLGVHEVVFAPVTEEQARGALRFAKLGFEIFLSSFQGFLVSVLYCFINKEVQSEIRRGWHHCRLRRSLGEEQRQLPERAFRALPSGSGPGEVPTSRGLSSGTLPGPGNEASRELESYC
The assay is described as follows: Functional cAMP activation in the presence of 0.1% casein (no HSA). Particulars: read-out: Relative cAMP EC50, hGIPR.

In assay [2] the target is T1, hGIPR. The assay is described as follows: Functional cAMP activity in the presence of 1% HSA. Particulars: read-out: cAMP Rel EC50, hGIPR.
Another assay deals with hGcgR (Homo sapiens, UniProt P47871). The assay is described as follows: Functional cAMP activation in the presence of 0.1% casein (no HSA). As to conditions: read-out: Relative cAMP EC50, hGcgR.
The target in the next assay is human GcgR (Homo sapiens, UniProt P47871). The assay is described as follows: Functional cAMP activity in the presence of 1% HSA. Particulars: read-out: cAMP Rel EC50, hGcgR.
In assay [3] the target is T2, hGLP-1R (Homo sapiens, UniProt P43220). The assay is described as follows: Functional cAMP activity in the presence of 1% HSA. Particulars: read-out: cAMP Rel EC50, hGLP-1R.
Assay [4] addresses T2, hGLP-1R. The assay is described as follows: Functional cAMP activation in the presence of 0.1% casein (no HSA). Particulars: read-out: Relative cAMP EC50, hGLP-1R.
The mark [5] stands for this setting: in the presence of 0.1% casein (no HSA), geometric mean.
Where [6] appears, read: 0.1% casein, no HSA, geometric mean.
[7] abbreviates: in the presence of 0.1% casein (no HSA), geometric mean of relative EC50.
Where [8] appears, read: HEK-293 clonal cell line, 1% HSA, geometric mean of relative EC50.

Like-named read-outs stand apart in the source and are kept apart here. Starred links: 1 amine or outer side, 2 acyl side, 3 side chain; linkers in the order of their positions; H or OH if unused. Non-standard residues stand in square brackets, D forms with d. Residues, ends and D or L forms follow the SMILES beside them. Groups on a side chain read outwards from the residue. No end group written: not given here. *: point of attachment. C20 diacid = O=C(O)CCCCCCCCCCCCCCCCCCC(=O)*; C18 diacid = O=C(O)CCCCCCCCCCCCCCCCC(=O)*; αMePhe(2-F) = C[C@](N)(Cc1ccccc1F)C(=O)O; γGlu = O=C(O)[C@H](CCC(=O)[*:2])N[*:1]; αMe4Pal = C[C@](N)(Cc1ccncc1)C(=O)O; αMeY = C[C@](N)(Cc1ccc(O)cc1)C(=O)O; 4Pal = N[C@@H](Cc1ccncc1)C(=O)O; αMeL = CC(C)C[C@](C)(N)C(=O)O; αMeS = C[C@](N)(CO)C(=O)O; Orn = NCCC[C@H](N)C(=O)O; AEEA = NCCOCCOCC(=O)O; Aib = CC(C)(N)C(=O)O
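Throughout, for Relative cAMP EC50, hGIPR: intracellular cAMP rise after 30 min at 37 °C read by HTRF against a standard curve, scaled between buffer alone (0%) and top control ligand concentration (100%), four-parameter fit.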
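Throughout, for Relative cAMP EC50, hGLP-1R: intracellular cAMP rise after 30 min at 37 °C read by HTRF, normalized between buffer only (0%) and maximal control ligand (100%), four-parameter variable-slope fit.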
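Throughout, for Relative cAMP EC50, hGcgR: intracellular cAMP rise after 30 min at 37 °C, read by HTRF against a cAMP standard curve, scaled from buffer only (0%) to maximal control ligand response (100%).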

hGcgR, sequence (P47871 26-477): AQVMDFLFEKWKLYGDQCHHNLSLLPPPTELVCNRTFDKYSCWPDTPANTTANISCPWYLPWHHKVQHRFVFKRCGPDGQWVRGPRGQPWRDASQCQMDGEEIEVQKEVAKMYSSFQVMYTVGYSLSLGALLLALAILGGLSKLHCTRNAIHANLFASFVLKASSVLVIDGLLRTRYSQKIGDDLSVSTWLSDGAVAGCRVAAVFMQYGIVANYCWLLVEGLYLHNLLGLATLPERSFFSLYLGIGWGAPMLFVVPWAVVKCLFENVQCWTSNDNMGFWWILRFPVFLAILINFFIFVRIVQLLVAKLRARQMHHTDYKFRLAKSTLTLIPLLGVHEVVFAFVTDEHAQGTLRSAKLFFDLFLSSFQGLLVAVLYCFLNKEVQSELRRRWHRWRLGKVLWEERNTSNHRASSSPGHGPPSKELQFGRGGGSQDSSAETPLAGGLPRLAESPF
human GcgR, sequence (P47871 26-477): as above
T2 sequence (P43220 24-463): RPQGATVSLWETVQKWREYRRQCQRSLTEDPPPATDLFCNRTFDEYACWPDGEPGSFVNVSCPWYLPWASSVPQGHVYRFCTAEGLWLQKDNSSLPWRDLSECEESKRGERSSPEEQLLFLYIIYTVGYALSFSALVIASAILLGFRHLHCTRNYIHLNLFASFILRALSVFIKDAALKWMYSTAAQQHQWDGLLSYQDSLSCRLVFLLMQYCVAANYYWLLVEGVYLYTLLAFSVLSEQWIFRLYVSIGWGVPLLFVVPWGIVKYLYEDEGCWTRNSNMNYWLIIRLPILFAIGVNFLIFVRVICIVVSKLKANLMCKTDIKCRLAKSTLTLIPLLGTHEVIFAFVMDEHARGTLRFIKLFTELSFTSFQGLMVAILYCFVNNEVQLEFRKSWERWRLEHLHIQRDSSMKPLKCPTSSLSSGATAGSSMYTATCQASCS

Take “H-Y[Aib]QGTFTSD[4Pal]SQ[αMeL]LDKK([Glu-γGlu-C18 diacid])AQ[αMe4Pal]AFIEYLIE[Aib]GPSSGAPPPSGS-NH2 [Example 894]”: the EC50 at hGIPR [1] (setting [5]) is 0.0752 nM; on hGIPR [2] it was 30.9 nM; on hGcgR (setting [5]), 6.09 nM; on human GcgR it was 2330 nM; on hGLP-1R [3] it was 711 nM; on hGLP-1R [4] (setting [5]), 2.01 nM.

“H-Y[Aib]QGT[αMePhe(2-F)]TSD[4Pal]SILLDKK([γGlu-γGlu-C18 diacid])AQ[Aib]AFIEWLEEGGPSSGAPPPSGTE-NH2 [Example 549]”: the EC50 at hGIPR [1] worked out at 0.0255 nM; at hGIPR [2], 3.67 nM; on hGcgR, 3.41 nM; at human GcgR it was 655 nM; on hGLP-1R [3] it was 76.2 nM; on hGLP-1R [4], 0.395 nM.

In the case of `CC[C@H](C)[C@H](NC(=O)[C@H](Cc1ccccc1)NC(=O)[C@H](C)NC(=O)C(C)(C)NC(=O)[C@H](CCC(N)=O)NC(=O)[C@H](C)NC(=O)[C@H](CCCCNC(=O)COCCOCCNC(=O)CC[C@H](NC(=O)CCCCCCCCCCCCCCCCC(=O)O)C(=O)O)NC(=O)[C@H](CCCCN)NC(=O)[C@H](CC(=O)O)NC(=O)[C@H](CC(C)C)NC(=O)[C@](C)(CC(C)C)NC(=O)[C@H](CCCN)NC(=O)[C@H](CO)NC(=O)[C@H](Cc1ccccc1)NC(=O)[C@H](CC(=O)O)NC(=O)[C@H](CO)NC(=O)[C@@H](NC(=O)[C@H](Cc1ccccc1)NC(=O)[C@@H](NC(=O)CNC(=O)[C@H](CCC(N)=O)NC(=O)C(C)(C)NC(=O)[C@@H](N)Cc1ccc(O)cc1)[C@@H](C)O)[C@@H](C)O)C(=O)N[C@@H](CCC(=O)O)C(=O)N[C@@H](Cc1ccc(O)cc1)C(=O)N[C@@H](CC(C)C)C(=O)N[C@@H](CC(C)C)C(=O)N[C@@H](CCC(=O)O)C(=O)N[C@H](C)C(=O)NCC(=O)N1CCC[C@H]1C(=O)N[C@@H](CO)C(=O)N[C@@H](CO)C(=O)NCC(=O)N[C@@H](C)C(=O)N1CCC[C@H]1C(=O)N1CCC[C@H]1C(=O)N1CCC[C@H]1C(=O)N[C@@H](CCC(=O)O)C(=O)NCC(=O)N[C@@H](CCC(=O)O)C(N)=O` [Example 206], the EC50 at hGIPR [1] (setting [5]) was 0.224 nM; on hGIPR [2] it was 38.8 nM; on hGcgR (setting [5]) it was 2.2 nM; on human GcgR it was 545 nM; on hGLP-1R [3], 372 nM; at hGLP-1R [4] (setting [5]), 2.77 nM.

“H-Y[Aib]QGT[αMePhe(2-F)]TSD[4Pal]SI[αMeL]LD[Orn]K([γGlu-γGlu-C18 diacid])AQ[αMe4Pal]EFI[dE][αMeY]LLEGGPSSGAPPPSGE-NH2 [Example 617]”: the concentration for a half-maximal effect (EC50) amounted to 0.00849 nM on hGIPR [1]; 0.643 nM at hGIPR [2]; 4.56 nM on hGcgR; 547 nM on human GcgR; 67.4 nM on hGLP-1R [3]; 0.534 nM on hGLP-1R [4].

On to `CC[C@H](C)[C@H](NC(=O)[C@H](CCCN)NC(=O)[C@H](CC(=O)O)NC(=O)[C@H](CC(C)C)NC(=O)[C@H](CC(C)C)NC(=O)[C@@H](NC(=O)[C@H](CO)NC(=O)[C@H](Cc1ccncc1)NC(=O)[C@H](CC(=O)O)NC(=O)[C@H](CO)NC(=O)[C@@H](NC(=O)[C@](C)(Cc1ccccc1F)NC(=O)[C@@H](NC(=O)CNC(=O)[C@H](CCC(N)=O)NC(=O)C(C)(C)NC(=O)[C@@H](N)Cc1ccc(O)cc1)[C@@H](C)O)[C@@H](C)O)[C@@H](C)CC)C(=O)N[C@@H](C)C(=O)N[C@@H](CCC(N)=O)C(=O)NC(C)(C)C(=O)N[C@@H](C)C(=O)N[C@@H](Cc1ccccc1)C(=O)N[C@H](C(=O)N[C@@H](CCCCNC(=O)COCCOCCNC(=O)CC[C@H](NC(=O)CCCCCCCCCCCCCCCCC(=O)O)C(=O)O)C(=O)N[C@@H](Cc1ccc(O)cc1)C(=O)N[C@@H](CC(C)C)C(=O)N[C@@H](CCC(=O)O)C(=O)N[C@@H](CCC(=O)O)C(=O)NCC(=O)NCC(=O)N1CCC[C@H]1C(=O)N[C@@H](CO)C(=O)N[C@@H](CO)C(=O)NCC(=O)N[C@@H](C)C(=O)N1CCC[C@H]1C(=O)N1CCC[C@H]1C(=O)N1CCC[C@H]1C(=O)N[C@@H](CO)C(N)=O)[C@@H](C)CC` [Example 454] (H-Y[Aib]QGT[αMePhe(2-F)]TSD[4Pal]SILLD[Orn]IAQ[Aib]AFIK([AEEA-γGlu-C18 diacid])YLEEGGPSSGAPPPS-NH2), for which the EC50 is 0.0154 nM on hGIPR [1]; 4.31 nM at hGIPR [2]; 9.11 nM on hGcgR; 1280 nM at human GcgR; 135 nM at hGLP-1R [3]; 0.821 nM at hGLP-1R [4].

As for “H-Y[Aib]QGT[αMePhe(2-F)]TSD[4Pal][αMeS]ILLD[Orn]K([γGlu-γGlu-C18 diacid])AQ[Aib][Orn]FI[dE]YLIEGGPSSGEPPPEGTEEE-NH2 [Example 577]”, the EC50 at hGIPR [1] worked out at 0.103 nM; on hGIPR [2], 10 nM; at hGcgR, 6.47 nM; at human GcgR, 937 nM; on hGLP-1R [3], 81.8 nM; on hGLP-1R [4], 0.931 nM.

With “H-Y[Aib]QGTFTSDFSK[αMeL]LDKK([AEEA-γGlu-C18 diacid])AQ[Aib]AFIEYLLEGGESSGAPPPSGS-NH2 [Example 146]”, the half-maximal effective concentration (EC50) on hGIPR [1] (setting [5]) was found to be 0.362 nM; at hGIPR [2] it was 74.6 nM; at hGcgR (setting [5]), 2.04 nM; on human GcgR, 463 nM; on hGLP-1R [3], 678 nM; at hGLP-1R [4] (setting [5]), 2.73 nM.

As to “Y[Aib]QGTFTSD[4Pal]SQ[αMeL]LDKK([dE-γGlu-dE-C18 diacid])AQ[αMe4Pal]AFIEYLIE[Aib]GPSSGAPPPSGS-NH2 [Example 923]”, the EC50 at hGIPR [1] (setting [5]) was 0.123 nM; at hGIPR [2] it was 18.5 nM; at hGcgR (setting [5]), 9.1 nM; at human GcgR it was 1840 nM; on hGLP-1R [3], 870 nM; at hGLP-1R [4] (setting [5]), 6.23 nM.

In the case of “H-Y[Aib]QGT[αMePhe(2-F)]TSD[4Pal]SI[αMeL]LD[Orn][Orn]([γGlu-γGlu-C18 diacid])AQ[αMe4Pal][Orn]FI[dE][αMeY]LIEGGPSSGEPPPETE-NH2 [Example 1209]”, the EC50 stood at 0.00819 nM on hGIPR [1] (setting [6]); 0.565 nM at hGIPR [2]; 0.97 nM on hGcgR (setting [6]); 124 nM at human GcgR; 37.7 nM at hGLP-1R [3]; 0.41 nM on hGLP-1R [4] (setting [6]).

“H-Y[Aib]QGTFTSD[4Pal]SR[αMeL]LDKK([AEEA-γGlu-C18 diacid])AQ[Aib]AFIE[αMeY]LLEGGPSSGAPPPSGS-NH2 [Example 909]”: the EC50 was found to be 0.121 nM on hGIPR [1] (setting [5]); 20.2 nM on hGIPR [2]; 6.82 nM at hGcgR (setting [5]); 1740 nM on human GcgR; 243 nM at hGLP-1R [3]; 1.72 nM on hGLP-1R [4] (setting [5]).

In the case of “H-Y[Aib]QGT[αMePhe(2-F)]TSDYSKLLDKIAQK([AEEA-γGlu-C20 diacid])[Orn]FIEWLIEGGPSSGEPPPSEG-NH2 [Example 310]”, the EC50 on hGIPR [1] (setting [5]) is 0.0939 nM; on hGIPR [2], 15 nM; at hGcgR (setting [5]), 3.52 nM; at human GcgR, 4000 nM; at hGLP-1R [3], 177 nM; at hGLP-1R [4] (setting [5]), 0.586 nM.

For “Y[Aib]QGT[αMePhe(2-F)]TSD[4Pal]SI[αMeL]LD[Orn]QAQ[αMe4Pal][Orn]FI[dE][αMeY]LIEGGPSSGEPPPETE-NH2 [Example 1230]”, the half-maximal effective concentration (EC50) at hGIPR [1] (setting [6]) came to 0.022 nM; at hGIPR [2], 0.0152 nM; at hGcgR (setting [6]), 64.7 nM; at human GcgR it was 68.4 nM; on hGLP-1R [3], 1.14 nM; on hGLP-1R [4] (setting [6]), 1.19 nM.

Take “H-Y[Aib]QGT[αMePhe(2-F)]TSD[4Pal]SI[αMeL]LDKK([γGlu-γGlu-C18 diacid])AQ[Aib][Orn]FIEYLAEGGPSSGEPPPSGSEE-NH2 [Example 636]”: the EC50 on hGIPR [1] (setting [7]) stood at 0.054 nM; at hGIPR [2] (setting [8]), 4.3 nM; at hGcgR (setting [7]), 9.28 nM; on human GcgR (setting [8]), 935 nM; at hGLP-1R [3] (setting [8]) it was 36.6 nM; at hGLP-1R [4] (setting [7]), 0.504 nM.

Take “Y[Aib]QGT[αMePhe(2-F)]TSD[4Pal][αMeS]I[αMeL]LD[Orn]K([AEEA-γGlu-C18 diacid])AQ[αMe4Pal]EFI[dQ][αMeY]LIEGGPSSGAPPPSGS-NH2 [Example 1202]”: the EC50 on hGIPR [1] (setting [6]) stood at 0.00635 nM; on hGIPR [2], 0.471 nM; at hGcgR (setting [6]), 0.5 nM; on human GcgR, 70.3 nM; on hGLP-1R [3], 23.1 nM; at hGLP-1R [4] (setting [6]), 0.237 nM.

Broadly, the EC50 is the concentration that produces a half-maximal response.
